# Measurements taken from ChEMBL document CHEMBL2413072, “Synthesis and in vitro anticancer studies of novel C-2 arylidene congeners of lantadenes” (2013).
# Assays:
# Format in all cases: functional
# SF-268 [1] = experiment: Growth inhibition of human SF268 cells by sulforhodamine B assay
# HT-29 [2] = experiment: Growth inhibition of human HT-29 cells by sulforhodamine B assay
# COLO 205 = experiment: Growth inhibition of human COLO205 cells by sulforhodamine B assay
# NCI-H226 [3] = experiment: Growth inhibition of human NCI-H226 cells by sulforhodamine B assay
# A549 [4] = experiment: Growth inhibition of human A549/ATCC cells by sulforhodamine B assay
# M14 = experiment: Growth inhibition of human M14 cells assessed as cell growth at 10^-8 M by sulforhodamine B assay; conditions: read-out: Activity
# SF-295 = experiment: Growth inhibition of human SF295 cells assessed as cell growth at 10^-8 M by sulforhodamine B assay; conditions: read-out: Activity
# SF-268 [5] = experiment: Growth inhibition of human SF268 cells assessed as cell growth at 10^-8 M by sulforhodamine B assay; conditions: read-out: Activity
# SW-620 = experiment: Growth inhibition of human SW620 cells assessed as cell growth at 10^-8 M by sulforhodamine B assay; conditions: read-out: Activity
# NCI-H322M = experiment: Growth inhibition of human NCI-H322M cells assessed as cell growth at 10^-8 M by sulforhodamine B assay; conditions: read-out: Activity
# NCI-H23 = experiment: Growth inhibition of human NCI-H23 cells assessed as cell growth at 10^-8 M by sulforhodamine B assay; conditions: read-out: Activity
# A549 [6] = experiment: Growth inhibition of human A549/ATCC cells assessed as cell growth at 10^-8 M by sulforhodamine B assay; conditions: read-out: Activity
# PC-3 = experiment: Growth inhibition of human PC3 cells by sulforhodamine B assay
# DU-145 = experiment: Growth inhibition of human DU145 cells by sulforhodamine B assay
# CAKI-1 [7] = experiment: Growth inhibition of human CAKI-1 cells by sulforhodamine B assay
# ACHN = experiment: Growth inhibition of human ACHN cells by sulforhodamine B assay
# A498 = experiment: Growth inhibition of human A498 cells assessed as cell growth at 10^-4 M by sulforhodamine B assay; conditions: read-out: Activity
# 786-0 = experiment: Growth inhibition of human 786-0 cells assessed as cell growth at 10^-4 M by sulforhodamine B assay; conditions: read-out: Activity
# SK-MEL-5 [8] = experiment: Growth inhibition of human SK-MEL-5 cells assessed as cell growth at 10^-4 M by sulforhodamine B assay; conditions: read-out: Activity
# HT-29 [9] = experiment: Growth inhibition of human HT-29 cells assessed as cell growth at 10^-4 M by sulforhodamine B assay; conditions: read-out: Activity
# NCI-H226 [10] = experiment: Growth inhibition of human NCI-H226 cells assessed as cell growth at 10^-4 M by sulforhodamine B assay; conditions: read-out: Activity
# [11] = Growth inhibition of human Hs 578T cells assessed as cell growth at 10^-6 M by sulforhodamine B assay; conditions: read-out: Activity
# CAKI-1 [12] = experiment: Growth inhibition of human CAKI-1 cells assessed as cell growth at 10^-6 M by sulforhodamine B assay; conditions: read-out: Activity
# OVCAR-5 [13] = experiment: Growth inhibition of human OVCAR5 cells assessed as cell growth at 10^-6 M by sulforhodamine B assay; conditions: read-out: Activity
# SK-MEL-5 [14] = experiment: Growth inhibition of human SK-MEL-5 cells assessed as cell growth at 10^-6 M by sulforhodamine B assay; conditions: read-out: Activity
# SK-MEL-28 = experiment: Growth inhibition of human SK-MEL-28 cells assessed as cell growth at 10^-6 M by sulforhodamine B assay; conditions: read-out: Activity
# MDA-MB-435 [15] = experiment: Growth inhibition of human MDA-MB-435 cells assessed as cell growth at 10^-6 M by sulforhodamine B assay; conditions: read-out: Activity
# LOX IMVI = experiment: Growth inhibition of human LOXIMVI cells assessed as cell growth at 10^-6 M by sulforhodamine B assay; conditions: read-out: Activity
# SNB-75 = experiment: Growth inhibition of human SNB75 cells assessed as cell growth at 10^-6 M by sulforhodamine B assay; conditions: read-out: Activity
# HT-29 [16] = experiment: Growth inhibition of human HT-29 cells assessed as cell growth at 10^-6 M by sulforhodamine B assay; conditions: read-out: Activity
# [17] = Growth inhibition of human HCC2998 cells assessed as cell growth at 10^-6 M by sulforhodamine B assay; conditions: HCC 2998, read-out: Activity
# RPMI-8226 = experiment: Growth inhibition of human RPMI8226 cells assessed as cell growth at 10^-6 M by sulforhodamine B assay; conditions: read-out: Activity
# HL-60(TB) = experiment: Growth inhibition of human HL-60(TB) cells assessed as cell growth at 10^-6 M by sulforhodamine B assay; conditions: read-out: Activity
# MDA-MB-435 [18] = experiment: Growth inhibition of human MDA-MB-435 cells assessed as cell growth at 10^-7 M by sulforhodamine B assay; conditions: read-out: Activity
# U-251 = experiment: Growth inhibition of human U251 cells assessed as cell growth at 10^-7 M by sulforhodamine B assay; conditions: read-out: Activity
# SNB-19 = experiment: Growth inhibition of human SNB19 cells assessed as cell growth at 10^-7 M by sulforhodamine B assay; conditions: read-out: Activity
# A549 [19] = experiment: Growth inhibition of human A549/ATCC cells assessed as cell growth at 10^-7 M by sulforhodamine B assay; conditions: read-out: Activity
# MOLT-4 = experiment: Growth inhibition of human MOLT4 cells assessed as cell growth at 10^-7 M by sulforhodamine B assay; conditions: read-out: Activity
# OVCAR-5 [20] = experiment: Growth inhibition of human OVCAR5 cells assessed as cell growth at 10^-8 M by sulforhodamine B assay; conditions: read-out: Activity
# [21] = read-out: LC50 (the source's name)
# [22] = read-out: pLC50 (the source's name) (converted)
compound,measurement,setting,value
C/C=C(/C)C(=O)O[C@@H]1CC(C)(C)C[C@H]2C3=CC[C@@H]4[C@@]5(C)CCC(=O)C(C)(C)[C@@H]5CC[C@@]4(C)[C@]3(C)CC[C@@]12C(=O)O [LANTADENE A],GI50,SF-268 [1]; read-out: GI50,5.96 µM
same,LC50,SF-268 [1]; read-out: LC50,> 100 µM
same,TGI,SF-268 [1]; read-out: TGI,> 100 µM
same,GI50,SF-268 [1]; read-out: pGI50 (converted),6.03 µM
same,LC50,SF-268 [1]; read-out: pLC50 (converted),> 100 µM
same,TGI,SF-268 [1]; read-out: pTGI (converted),> 100 µM
same,GI50,HT-29 [2]; read-out: GI50,4.32 µM
same,LC50 (50% cell kill),HT-29 [2]; read-out: LC50,> 100 µM
same,TGI,HT-29 [2]; read-out: TGI,> 100 µM
same,GI50,HT-29 [2]; read-out: pGI50 (converted),4.37 µM
same,LC50 (50% cell kill),HT-29 [2]; read-out: pLC50 (converted),> 100 µM
same,TGI,HT-29 [2]; read-out: pTGI (converted),> 100 µM
same,GI50,COLO 205; read-out: GI50,2640 nM
same,LC50,COLO 205; read-out: LC50,89.7 µM
same,TGI,COLO 205; read-out: TGI,6.8 µM
same,GI50,COLO 205; read-out: pGI50 (converted),2630 nM
same,LC50,COLO 205; read-out: pLC50 (converted),89.1 µM
same,TGI,COLO 205; read-out: pTGI (converted),6.76 µM
same,GI50,NCI-H226 [3]; read-out: GI50,4.71 µM
same,LC50,NCI-H226 [3]; read-out: LC50,> 100 µM
same,TGI,NCI-H226 [3]; read-out: TGI,> 100 µM
same,GI50,NCI-H226 [3]; read-out: pGI50 (converted),4.68 µM
same,LC50,NCI-H226 [3]; read-out: pLC50 (converted),> 100 µM
same,TGI,NCI-H226 [3]; read-out: pTGI (converted),> 100 µM
same,GI50,A549 [4]; read-out: GI50,2840 nM
same,CC50,A549 [4]; [21],> 100 µM
same,TGI,A549 [4]; read-out: TGI,> 100 µM
same,GI50,A549 [4]; read-out: pGI50 (converted),2820 nM
same,CC50,A549 [4]; [22],> 100 µM
same,TGI,A549 [4]; read-out: pTGI (converted),> 100 µM
same,growth at 0.01 µM,M14,96%
same,growth at 0.01 µM,SF-295,96%
same,growth at 0.01 µM,SF-268 [5],100%
same,growth at 0.01 µM,SW-620,100%
same,growth at 0.01 µM,NCI-H322M,99%
same,growth at 0.01 µM,NCI-H23,100%
same,growth at 0.01 µM,A549 [6],94%
same,GI50,PC-3; read-out: GI50,2530 nM
same,CC50,PC-3; [21],> 100 µM
same,TGI,PC-3; read-out: TGI,> 100 µM
same,GI50,PC-3; read-out: pGI50 (converted),2510 nM
same,CC50,PC-3; [22],> 100 µM
same,TGI,PC-3; read-out: pTGI (converted),> 100 µM
same,GI50,DU-145; read-out: GI50,5.92 µM
same,CC50,DU-145; [21],> 100 µM
same,TGI,DU-145; read-out: TGI,> 100 µM
same,GI50,DU-145; read-out: pGI50 (converted),5.89 µM
same,CC50,DU-145; [22],> 100 µM
same,TGI,DU-145; read-out: pTGI (converted),> 100 µM
same,GI50,CAKI-1 [7]; read-out: GI50,3.93 µM
same,CC50,CAKI-1 [7]; [21],> 100 µM
same,TGI,CAKI-1 [7]; read-out: TGI,> 100 µM
same,GI50,CAKI-1 [7]; read-out: pGI50 (converted),3.89 µM
same,CC50,CAKI-1 [7]; [22],> 100 µM
same,TGI,CAKI-1 [7]; read-out: pTGI (converted),> 100 µM
same,GI50,ACHN; read-out: GI50,4.94 µM
same,CC50,ACHN; [21],> 100 µM
same,TGI,ACHN; read-out: TGI,> 100 µM
same,GI50,ACHN; read-out: pGI50 (converted),4.9 µM
same,CC50,ACHN; [22],> 100 µM
same,TGI,ACHN; read-out: pTGI (converted),> 100 µM
same,growth at 100 µM,A498,-20%
same,growth at 100 µM,786-0,4%
same,growth at 100 µM,SK-MEL-5 [8],-46%
same,growth at 100 µM,HT-29 [9],19%
same,growth at 100 µM,NCI-H226 [10],20%
same,growth at 1 µM,[11],91%
same,growth at 1 µM,CAKI-1 [12],88%
same,growth at 1 µM,OVCAR-5 [13],98%
same,growth at 1 µM,SK-MEL-5 [14],58%
same,growth at 1 µM,SK-MEL-28,95%
same,growth at 1 µM,MDA-MB-435 [15],90%
same,growth at 1 µM,LOX IMVI,92%
same,growth at 1 µM,SNB-75,88%
same,growth at 1 µM,HT-29 [16],85%
same,growth at 1 µM,[17],98%
same,growth at 1 µM,RPMI-8226,64%
same,growth at 1 µM,HL-60(TB),80%
same,growth at 0.1 µM,MDA-MB-435 [18],95%
same,growth at 0.1 µM,U-251,94%
same,growth at 0.1 µM,SNB-19,89%
same,growth at 0.1 µM,A549 [19],90%
same,growth at 0.1 µM,MOLT-4,102%
same,growth at 0.01 µM,OVCAR-5 [20],101%
